Results reported in US9562053B2, “Benzo-fused heterocyclic derivatives useful as agonists of GPR120” (Janssen Pharmaceutica NV, priority 2013, dated 2017).
pEC50: −log10 of the molar value.

Each compound was assayed against T1, long form of human GPR120 (Homo sapiens, UniProt Q5NUL3) (assay: Human GPR120 DiscoveRx PathHunter Beta-Arrestin Assay, Procedure β-arrestin A (3000 cells per well)). Conditions: read-out: GPR120 B-arrestin A EC50.
T1 construct: host or cells: PathHunter CHO-K1 GPR120 β-Arrestin Cell Line
T1 sequence (Q5NUL3 1-377 isoform Q5NUL3-1): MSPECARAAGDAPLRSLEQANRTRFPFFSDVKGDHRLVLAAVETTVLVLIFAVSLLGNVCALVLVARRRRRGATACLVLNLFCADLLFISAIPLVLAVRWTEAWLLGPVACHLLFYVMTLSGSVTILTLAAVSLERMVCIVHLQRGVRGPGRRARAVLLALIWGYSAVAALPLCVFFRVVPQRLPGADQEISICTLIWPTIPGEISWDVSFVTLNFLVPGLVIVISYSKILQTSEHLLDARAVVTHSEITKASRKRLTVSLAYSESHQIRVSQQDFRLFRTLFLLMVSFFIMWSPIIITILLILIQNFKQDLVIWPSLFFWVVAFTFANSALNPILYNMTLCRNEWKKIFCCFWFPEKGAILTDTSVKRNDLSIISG
Format: cell-based
Outline: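 PathHunter CHO-K1 cells with long-form receptor, 3000/well, seeded overnight at 37 °C; equilibrated 60 min at 37 °C in HBSS/20 mM HEPES/0.1% BSA, pH 7.4. Compound serial dilutions (25–0.012 μM) added for 90 min at 37 °C, detection 60 min at room temperature, luminescence read; EC50 from % of positive control, Hill slope fixed at 1.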
In the case of `Cc1cc2cc3c(c(COc4ccc(CCC(=O)O)c(C)c4C)c2o1)OC(F)(F)O3` [Compound 89, 3-{4-[(2,2-Difluoro-6-methylfuro[2,3-f][1,3]benzodioxol-4-yl)methoxy]-2,3-dimethylphenyl}propanoic acid], the pEC50 was 6.92.
With `Cc1c(CCC(=O)O)ccc(OCc2cc(Cl)cc3cc(CC(F)F)oc23)c1C` [Compound 87, 3-(4-{[5-Chloro-2-(2,2-difluoroethyl)-1-benzofuran-7-yl]methoxy}-2,3-dimethylphenyl)propanoic acid] the pEC50 was 6.39.
Compound `CCc1cc2cc(OC(F)(F)F)cc(COc3ccc(CCC(=O)O)c(C)c3C)c2o1` [Compound 12, 3-(4-{[2-Ethyl-5-(trifluoromethoxy)-1-benzofuran-7-yl]methoxy}-2,3-dimethylphenyl)propanoic acid] has a pEC50 of 6.82.
Compound `CCCc1cc(OCc2cc(OC(F)(F)F)cc3cc(CC)oc23)c(F)cc1CCC(=O)O` [Compound 50, 3-(4-{[2-Ethyl-5-(trifluoromethoxy)-1-benzofuran-7-yl]methoxy}-5-fluoro-2-propylphenyl)propanoic acid] has a pEC50 of 6.30.
With `Cc1cc2cc(F)cc(COc3ccc(CCC(=O)O)c(C)c3C)c2o1` [Compound 2, 3-{4-[(5-Fluoro-2-methyl-1-benzofuran-7-yl)methoxy]-2,3-dimethylphenyl}propanoic acid] the pEC50 was 6.43.
With `CCc1cc2cc(Cl)c(CC)c(COc3ccc(CCC(=O)O)c(C)c3C)c2o1` [Compound 61, 3-{4-[(5-Chloro-2,6-diethyl-1-benzofuran-7-yl)methoxy]-2,3-dimethylphenyl}propanoic acid] the pEC50 was 6.72.
`Cc1oc2cc(Cl)cc(COc3ccc(CCC(=O)O)c(C)c3C)c2c1C` [Compound 80, 3-{4-[(6-Chloro-2,3-dimethyl-1-benzofuran-4-yl)methoxy]-2,3-dimethylphenyl}propanoic acid] was tested, and the pEC50 was 6.60.
`CCc1cc2cc(Cl)c(OC(C)C)c(COc3ccc(CCC(=O)O)c(C)c3C)c2o1` [Compound 65, 3-(4-{[5-Chloro-2-ethyl-6-(1-methylethoxy)-1-benzofuran-7-yl]methoxy}-2,3-dimethylphenyl)propanoic acid] gave a pEC50 of 6.62.
Compound `CCc1cc2cc(Cl)c(OC(F)F)c(COc3ccc(CCC(=O)O)c(C)c3C)c2o1` [Compound 69, 3-(4-{[5-Chloro-6-(difluoromethoxy)-2-ethyl-1-benzofuran-7-yl]methoxy}-2,3-dimethylphenyl)propanoic acid] has a pEC50 of 6.65.
With `CCCc1cc2cc(I)cc(COc3ccc(CCC(=O)O)c(C)c3C)c2o1` [Compound 47, 3-{4-[(5-Iodo-2-propyl-1-benzofuran-7-yl)methoxy]-2,3-dimethylphenyl}propanoic acid] the pEC50 was 6.71.
For `Cc1cc2cc(OC(F)(F)F)cc(COc3ccc(CCC(=O)O)c(C)c3C)c2o1` [Compound 36, 3-(2,3-Dimethyl-4-{[2-methyl-5-(trifluoromethoxy)-1-benzofuran-7-yl]methoxy}phenyl)propanoic acid], the pEC50 was 7.07.
`Cc1cc2cc(Cl)c(C)c(COc3ccc(CCC(=O)O)c(C)c3C)c2o1` [Compound 85, 3-{4-[(5-Chloro-2,6-dimethyl-1-benzofuran-7-yl)methoxy]-2,3-dimethylphenyl}propanoic acid] was tested, and the pEC50 was 6.62.
`CCCc1cc2cc(C(F)(F)F)cc(COc3ccc(CCC(=O)O)c(C)c3C)c2o1` [Compound 37, 3-(2,3-Dimethyl-4-{[2-propyl-5-(trifluoromethyl)-1-benzofuran-7-yl]methoxy}phenyl)propanoic acid] showed a pEC50 of 6.57.
`CCOc1c(Cl)cc2cc(CC)oc2c1COc1ccc(CCC(=O)O)c(C)c1C` [Compound 62, 3-{4-[(5-Chloro-6-ethoxy-2-ethyl-1-benzofuran-7-yl)methoxy]-2,3-dimethylphenyl}propanoic acid] was tested, and the pEC50 was 6.56.
`Cc1nc2cc(Cl)cc(COc3ccc(CCC(=O)O)c(C)c3C)c2o1` [Compound 84, 3-{4-[(5-Chloro-2-methyl-1,3-benzoxazol-7-yl)methoxy]-2,3-dimethylphenyl}propanoic acid] showed a pEC50 of 6.36.
With `Cc1cc2cc3c(c(COc4ccc(CCC(=O)O)c(C)c4C)c2o1)OCCO3` [Compound 90, 3-{2,3-Dimethyl-4-[(7-methyl-2,3-dihydrofuro[2,3-g][1,4]benzodioxin-5-yl)methoxy]phenyl}propanoic acid] the pEC50 was 6.27.
With `Cc1cc2cc3c(c(COc4ccc(CCC(=O)O)c(C)c4C)c2o1)OCO3` [Compound 82, 3-{2,3-Dimethyl-4-[(6-methylfuro[2,3-f][1,3]benzodioxol-4-yl)methoxy]phenyl}propanoic acid] the pEC50 was 6.07.
`CCc1cc2cc(OC(F)F)cc(COc3ccc(CCC(=O)O)c(C)c3C)c2o1` [Compound 57, 3-(4-{[5-(Difluoromethoxy)-2-ethyl-1-benzofuran-7-yl]methoxy}-2,3-dimethylphenyl)propanoic acid] was tested, and the pEC50 was 7.11.
`CCc1cc2cc(Cl)c(C)c(COc3ccc(CCC(=O)O)c(C)c3C)c2o1` [Compound 40, 3-{4-[(5-Chloro-2-ethyl-6-methyl-1-benzofuran-7-yl)methoxy]-2,3-dimethylphenyl}propanoic acid] was tested, and the pEC50 was 6.97.
`CCc1cc2cc(Cl)c(OC)c(COc3ccc(CCC(=O)O)c(C)c3C)c2o1` [Compound 44, 3-{4-[(5-Chloro-2-ethyl-6-methoxy-1-benzofuran-7-yl)methoxy]-2,3-dimethylphenyl}propanoic acid] was tested, and the pEC50 was 6.64.
`Cc1cc2cc(Cl)cc(COc3ccc(CCC(=O)O)c(C)c3C)c2s1` [Compound 91, 3-{4-[(5-Chloro-2-methyl-1-benzothiophen-7-yl)methoxy]-2,3-dimethylphenyl}propanoic acid] was tested, and the pEC50 was 6.20.
`CC#Cc1cc(COc2ccc(CCC(=O)O)c(C)c2C)c2oc(CCC)cc2c1` [Compound 58, 3-{2,3-Dimethyl-4-[(2-propyl-5-prop-1-yn-1-yl-1-benzofuran-7-yl)methoxy]phenyl}propanoic acid] showed a pEC50 of 6.39.
`CCOc1ccc2cc(CC)oc2c1COc1ccc(CCC(=O)O)c(C)c1C` [Compound 66, 3-{4-[(6-Ethoxy-2-ethyl-1-benzofuran-7-yl)methoxy]-2,3-dimethylphenyl}propanoic acid] was tested, and the pEC50 was 5.85.
Compound `CCc1cc2cc(F)cc(COc3c(F)cc(CCC(=O)O)cc3F)c2o1` [Compound 17, 3-{4-[(2-Ethyl-5-fluoro-1-benzofuran-7-yl)methoxy]-3,5-difluorophenyl}propanoic acid] has a pEC50 of 6.34.
With `Cc1c(CCC(=O)O)ccc(OCc2cc(F)cc3cc(CC(C)C)oc23)c1C` [Compound 23, 3-(4-{[5-Fluoro-2-(2-methylpropyl)-1-benzofuran-7-yl]methoxy}-2,3-dimethylphenyl)propanoic acid] the pEC50 was 6.33.
For `Cc1c(CCC(=O)O)ccc(OCc2cc(Cl)cc3cnn(C)c23)c1C` [Compound 7, 3-{4-[(5-Chloro-1-methyl-1H-indazol-7-yl)methoxy]-2,3-dimethylphenyl}propanoic acid], the pEC50 was 6.97.
Work on `CCc1cc2cc(Cl)c(OCCOC)c(COc3ccc(CCC(=O)O)c(C)c3C)c2o1` [Compound 63, 3-(4-{[5-Chloro-2-ethyl-6-(2-methoxyethoxy)-1-benzofuran-7-yl]methoxy}-2,3-dimethylphenyl)propanoic acid] yielded a pEC50 of 6.64.
In the case of `Cc1c(CCC(=O)O)ccc(OCc2cc(OC(F)(F)F)cc3cc(CC(F)F)oc23)c1C` [Compound 96, 3-(4-{[2-(2,2-Difluoroethyl)-5-(trifluoromethoxy)-1-benzofuran-7-yl]methoxy}-2,3-dimethylphenyl)propanoic acid], the pEC50 was 6.83.
`CCc1cc2cc(F)cc(COc3ccc(CCC(=O)O)c(C)c3C)c2o1` [Compound 3, 3-{4-[(2-Ethyl-5-fluoro-1-benzofuran-7-yl)methoxy]-2,3-dimethylphenyl}propanoic acid] showed a pEC50 of 6.49.
`Cc1oc2cccc(COc3ccc(CCC(=O)O)c(C)c3C)c2c1C` [Compound 60, 3-{4-[(2,3-Dimethyl-1-benzofuran-4-yl)methoxy]-2,3-dimethylphenyl}propanoic acid] showed a pEC50 of 6.15.
For `Cc1c(CCC(=O)O)ccc(OCc2cc(F)cc3cc(C4CCCC4)oc23)c1C` [Compound 18, 3-{4-[(2-Cyclopentyl-5-fluoro-1-benzofuran-7-yl)methoxy]-2,3-dimethylphenyl}propanoic acid], the pEC50 was 5.78.
For `Cc1cc2cc(Cl)c(C)c(COc3c(F)cc(CCC(=O)O)cc3F)c2o1` [Compound 86, 3-{4-[(5-Chloro-2,6-dimethyl-1-benzofuran-7-yl)methoxy]-3,5-difluorophenyl}propanoic acid], the pEC50 was 6.34.
Work on `Cc1cc2c(F)c(OC(F)(F)F)c(F)c(COc3ccc(CCC(=O)O)c(F)c3F)c2o1` [Compound 75, 3-(4-{[4,6-Difluoro-2-methyl-5-(trifluoromethoxy)-1-benzofuran-7-yl]methoxy}-2,3-difluorophenyl)propanoic acid] yielded a pEC50 of 6.40.
`Cc1c(CCC(=O)O)ccc(OCc2cc(F)cc3cc(C(C)C)oc23)c1C` [Compound 22, 3-(4-{[5-Fluoro-2-(1-methylethyl)-1-benzofuran-7-yl]methoxy}-2,3-dimethylphenyl)propanoic acid] was tested, and the pEC50 was 6.10.
For `COCc1cc2cc(F)cc(COc3ccc(CCC(=O)O)c(C)c3C)c2o1` [Compound 21, 3-(4-{[5-Fluoro-2-(methoxymethyl)-1-benzofuran-7-yl]methoxy}-2,3-dimethylphenyl)propanoic acid], the pEC50 was 6.34.
